How the values were obtained:
[1] = molecular target: Vasopressin V1a receptor (Homo sapiens) (UniProt P37288); assay: Vasopresine V1a receptor (h) CEREP ligand profiling; settings: Compound concentration 10.0 uM
[2] = molecular target: Kappa-type opioid receptor (Homo sapiens, UniProt P41145); assay: kappa-Opioid receptor (h) CEREP ligand profiling; settings: Compound concentration 10.0 uM
Mu-type opioid receptor = Mu-type opioid receptor (Homo sapiens, UniProt P35372); assay: mu-Opioid receptor (h) CEREP ligand profiling; settings: Compound concentration 10.0 uM
[3] = molecular target: Calcium-activated potassium channel (Homo sapiens) (UniProt Q92952+Q9UGI6+Q12791+O15554+Q9H2S1+A8MYU2); assay: K+ channel (Ca2+-dependent) CEREP ligand profiling; assay type: protein assay; settings: Compound concentration 10.0 uM
[4] = molecular target: Serine/threonine-protein kinase DCLK1 (Homo sapiens, UniProt O15075); assay: Inhibition of DCLK1 at compound concentration of 10.0 uM using the ScanMax (DiscoverX)
[5] = molecular target: 5-hydroxytryptamine receptor 2A (Homo sapiens) (UniProt P28223); assay: 5-Hydroxytryptamine2A (h) CEREP ligand profiling; settings: Compound concentration 10.0 uM
[6] = molecular target: Galanin receptor (Homo sapiens) (UniProt O60755+O43603+P47211); assay: Galanin receptor (h) CEREP ligand profiling; assay type: protein assay; settings: Compound concentration 10.0 uM
[7] = molecular target: Death-associated protein kinase 3 (Homo sapiens, UniProt O43293); assay: Inhibition of DAPK3 at compound concentration of 10.0 uM using the ScanMax (DiscoverX)
[8] = molecular target: GABA-A receptor; anion channel (Homo sapiens) (UniProt P14867+P47870+P18507+P28472+P48169+Q99928+Q9UN88+P34903+O00591+O14764+Q8N1C3+P18505+P78334+P47869+P31644+Q16445); assay: Benzodiazepine (central) CEREP ligand profiling; assay type: protein-complex assay; settings: Compound concentration 10.0 uM
[9] = molecular target: P2Y receptor (Homo sapiens) (UniProt Q9H244+P51582+P47900+P41231+Q15391+Q15077+Q96G91+Q9BPV8); assay: P2Y-purinergic receptor CEREP ligand profiling; assay type: protein assay; settings: Compound concentration 10.0 uM
[10] = molecular target: Glutamate NMDA receptor (Rattus norvegicus) (UniProt P35439+Q00959+Q00960+Q00961+Q62645+Q8VHN2+Q9R1M7); assay: PCP receptor CEREP ligand profiling; assay type: protein-complex assay; settings: Compound concentration 10.0 uM
[11] = molecular target: 5-hydroxytryptamine receptor 7 (Homo sapiens) (UniProt P34969); assay: 5-Hydroxytryptamine7 (h) CEREP ligand profiling; settings: Compound concentration 10.0 uM
[12] = molecular target: Type-1 angiotensin II receptor (Homo sapiens) (UniProt P30556); assay: Angiotensin AT1 receptor (h) CEREP ligand profiling; settings: Compound concentration 10.0 uM
[13] = molecular target: Somatostatin receptor (Homo sapiens) (UniProt P35346+P30874+P31391+P30872+P32745); assay: Somatostatin receptor CEREP ligand profiling; assay type: protein assay; settings: Compound concentration 10.0 uM
[14] = molecular target: Beta-1 adrenergic receptor (Homo sapiens) (UniProt P08588); assay: beta1-adrenoceptor (h) CEREP ligand profiling; settings: Compound concentration 10.0 uM
[15] = molecular target: 5-hydroxytryptamine receptor 1B (Homo sapiens) (UniProt P28222); assay: 5-Hydroxytryptamine1B CEREP ligand profiling; settings: Compound concentration 10.0 uM
[16] = molecular target: Calcitonin gene-related peptide type 1 receptor (Homo sapiens) (UniProt Q16602); assay: Calcitonin gene-related peptide CEREP ligand profiling; settings: Compound concentration 10.0 uM
[17] = molecular target: 5-hydroxytryptamine receptor 2C (Homo sapiens) (UniProt P28335); assay: 5-Hydroxytryptamine2C (h) CEREP ligand profiling; settings: Compound concentration 10.0 uM
[18] = molecular target: Prostacyclin receptor (Homo sapiens) (UniProt P43119); assay: Prostaglandin I2 receptor CEREP ligand profiling; settings: Compound concentration 10.0 uM
[19] = molecular target: T1, Sigma non-opioid intracellular receptor 1 (Homo sapiens, UniProt Q99720); assay: sigma-Receptor (non-selective) CEREP ligand profiling; settings: Compound concentration 10.0 uM
[20] = molecular target: Bombesin receptor (Homo sapiens) (UniProt P28336+P32247+P30550); assay: Bombesin receptor CEREP ligand profiling; assay type: protein assay; settings: Compound concentration 10.0 uM
[21] = molecular target: Cholecystokinin receptor type A (Homo sapiens) (UniProt P32238); assay: CholecystokininA receptor (h) CEREP ligand profiling; settings: Compound concentration 10.0 uM
[22] = molecular target: T2, 5-hydroxytryptamine receptor 1A (Homo sapiens) (UniProt P08908); assay: 5-Hydroxytryptamine1A (h) CEREP ligand profiling; settings: Compound concentration 10.0 uM
T2 sequence (whole entry): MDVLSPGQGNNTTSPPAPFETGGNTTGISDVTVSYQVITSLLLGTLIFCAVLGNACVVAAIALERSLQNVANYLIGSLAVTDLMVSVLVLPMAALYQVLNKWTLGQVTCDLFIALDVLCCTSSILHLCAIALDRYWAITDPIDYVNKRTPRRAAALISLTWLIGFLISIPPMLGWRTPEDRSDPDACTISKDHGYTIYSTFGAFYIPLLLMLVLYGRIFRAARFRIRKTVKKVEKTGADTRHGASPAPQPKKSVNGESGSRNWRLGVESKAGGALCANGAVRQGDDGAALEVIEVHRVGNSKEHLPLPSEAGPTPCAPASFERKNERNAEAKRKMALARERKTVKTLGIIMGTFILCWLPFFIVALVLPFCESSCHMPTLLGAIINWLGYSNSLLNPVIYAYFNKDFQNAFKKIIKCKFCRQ

[23] = molecular target: D(2) dopamine receptor (Homo sapiens) (UniProt P14416); assay: Dopamine D2 receptor (h) CEREP ligand profiling; settings: Compound concentration 10.0 uM
[24] = molecular target: Substance-P receptor (Homo sapiens) (UniProt P25103); assay: Neurokinin-1 receptor (h) CEREP ligand profiling; settings: Compound concentration 10.0 uM
[25] = molecular target: D(3) dopamine receptor (Homo sapiens) (UniProt P35462); assay: Dopamine D3 receptor (h) CEREP ligand profiling; settings: Compound concentration 10.0 uM
[26] = molecular target: 5-hydroxytryptamine receptor 6 (Homo sapiens) (UniProt P50406); settings: Compound concentration 10.0 uM
[27] = molecular target: Alpha-2C adrenergic receptor (Homo sapiens, UniProt P18825); assay: GPCRScan assay: inhibition of Alpha2C; design: radioligand conc. used [nm] 0.5 – 1.0, parental cells stable MDCK
[28] = molecular target: Alpha-2A adrenergic receptor (Homo sapiens) (UniProt P08913); settings: Compound concentration 10.0 uM
[29] = molecular target: T1, Sigma non-opioid intracellular receptor 1; assay: GPCRScan assay: inhibition of Sigma 1; design: radioligand conc. used [nm] 4.0 – 5.0, parental cells HEKT
[30] = molecular target: 5-hydroxytryptamine receptor 1D (Homo sapiens) (UniProt P28221); settings: Compound concentration 10.0 uM
[31] = molecular target: Muscarinic acetylcholine receptor M5 (Homo sapiens) (UniProt P08912); settings: Compound concentration 10.0 uM
[32] = molecular target: 5-hydroxytryptamine receptor 1A (Homo sapiens, UniProt P08908); assay: GPCRScan assay: inhibition of 5-HT1A; design: radioligand conc. used [nm] 0.5 – 1.0, parental cells stable CHO
D(4) dopamine receptor = D(4) dopamine receptor (Homo sapiens, UniProt P21917); assay: GPCRScan assay: inhibition of D4; design: radioligand conc. used [nm] 0.6 – 1.7, parental cells Stable HEK
[33] = molecular target: Sodium-dependent noradrenaline transporter (Homo sapiens) (UniProt P23975); settings: Compound concentration 10.0 uM
[34] = molecular target: Beta-2 adrenergic receptor (Homo sapiens) (UniProt P07550); settings: Compound concentration 10.0 uM
Chain of Beta-2 adrenergic receptor (Homo sapiens) (P07550 whole entry, looked up): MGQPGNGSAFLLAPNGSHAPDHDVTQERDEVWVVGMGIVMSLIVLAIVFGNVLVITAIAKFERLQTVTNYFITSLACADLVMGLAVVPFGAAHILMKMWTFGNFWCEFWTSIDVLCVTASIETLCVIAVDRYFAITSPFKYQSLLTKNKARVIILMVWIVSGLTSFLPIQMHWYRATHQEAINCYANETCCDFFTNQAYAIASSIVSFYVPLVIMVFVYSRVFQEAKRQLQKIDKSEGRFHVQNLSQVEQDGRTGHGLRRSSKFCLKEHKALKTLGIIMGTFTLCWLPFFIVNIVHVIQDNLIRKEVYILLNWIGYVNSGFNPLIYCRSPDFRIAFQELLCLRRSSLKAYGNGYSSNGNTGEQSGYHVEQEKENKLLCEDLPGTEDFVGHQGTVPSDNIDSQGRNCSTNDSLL

T1 sequence (Q99720 whole entry): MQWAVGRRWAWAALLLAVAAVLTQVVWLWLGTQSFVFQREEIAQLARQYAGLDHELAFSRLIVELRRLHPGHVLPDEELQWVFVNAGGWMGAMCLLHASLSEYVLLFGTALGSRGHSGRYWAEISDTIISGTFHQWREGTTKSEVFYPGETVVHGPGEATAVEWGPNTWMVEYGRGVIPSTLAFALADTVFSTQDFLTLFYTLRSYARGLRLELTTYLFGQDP
Chain of Alpha-2C adrenergic receptor (P18825 whole entry): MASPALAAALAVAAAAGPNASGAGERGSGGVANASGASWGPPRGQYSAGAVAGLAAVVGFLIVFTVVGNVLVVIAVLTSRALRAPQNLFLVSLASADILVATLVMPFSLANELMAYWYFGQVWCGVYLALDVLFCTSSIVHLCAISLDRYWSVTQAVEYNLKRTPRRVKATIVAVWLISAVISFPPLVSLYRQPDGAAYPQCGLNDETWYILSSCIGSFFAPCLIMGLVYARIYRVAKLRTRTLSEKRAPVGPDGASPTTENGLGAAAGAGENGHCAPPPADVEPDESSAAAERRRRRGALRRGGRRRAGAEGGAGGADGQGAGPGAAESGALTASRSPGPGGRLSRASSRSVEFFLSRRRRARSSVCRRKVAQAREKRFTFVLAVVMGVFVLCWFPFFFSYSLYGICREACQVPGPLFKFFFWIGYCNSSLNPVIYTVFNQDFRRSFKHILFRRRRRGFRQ
Chain of Prostacyclin receptor (Homo sapiens) (P43119 whole entry): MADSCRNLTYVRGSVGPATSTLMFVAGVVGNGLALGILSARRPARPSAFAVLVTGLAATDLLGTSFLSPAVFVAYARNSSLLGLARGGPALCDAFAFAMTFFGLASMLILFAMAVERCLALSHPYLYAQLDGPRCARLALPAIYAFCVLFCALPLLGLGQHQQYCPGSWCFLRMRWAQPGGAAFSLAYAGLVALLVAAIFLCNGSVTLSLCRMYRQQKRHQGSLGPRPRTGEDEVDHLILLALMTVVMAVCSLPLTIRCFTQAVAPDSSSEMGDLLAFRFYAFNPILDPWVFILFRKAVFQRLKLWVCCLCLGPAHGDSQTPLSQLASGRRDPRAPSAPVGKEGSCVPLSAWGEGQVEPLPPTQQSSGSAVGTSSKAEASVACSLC
Chain of Galanin receptor (Homo sapiens) (O43603 whole entry, looked up): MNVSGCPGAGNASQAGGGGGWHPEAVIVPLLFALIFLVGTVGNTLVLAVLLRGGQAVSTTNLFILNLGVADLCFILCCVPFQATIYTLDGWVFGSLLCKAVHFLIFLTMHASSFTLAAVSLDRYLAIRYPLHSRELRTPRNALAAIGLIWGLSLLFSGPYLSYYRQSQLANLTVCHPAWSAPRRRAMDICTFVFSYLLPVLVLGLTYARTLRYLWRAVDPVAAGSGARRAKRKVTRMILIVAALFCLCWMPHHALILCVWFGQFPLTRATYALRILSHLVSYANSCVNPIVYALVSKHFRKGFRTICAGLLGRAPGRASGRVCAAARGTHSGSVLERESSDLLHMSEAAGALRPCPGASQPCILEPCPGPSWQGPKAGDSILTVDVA
Chain of Galanin receptor (Homo sapiens) (O60755 whole entry, looked up): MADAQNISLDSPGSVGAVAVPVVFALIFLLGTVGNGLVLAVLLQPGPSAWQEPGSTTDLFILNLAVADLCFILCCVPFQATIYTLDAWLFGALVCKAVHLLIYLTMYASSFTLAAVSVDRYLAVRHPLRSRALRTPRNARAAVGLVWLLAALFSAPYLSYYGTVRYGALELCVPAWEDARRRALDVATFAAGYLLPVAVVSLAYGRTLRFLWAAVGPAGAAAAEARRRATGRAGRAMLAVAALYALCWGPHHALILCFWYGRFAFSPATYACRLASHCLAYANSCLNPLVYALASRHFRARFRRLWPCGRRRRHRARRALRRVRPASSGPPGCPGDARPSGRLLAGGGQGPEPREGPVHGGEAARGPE
Chain of Galanin receptor (Homo sapiens) (P47211 whole entry, looked up): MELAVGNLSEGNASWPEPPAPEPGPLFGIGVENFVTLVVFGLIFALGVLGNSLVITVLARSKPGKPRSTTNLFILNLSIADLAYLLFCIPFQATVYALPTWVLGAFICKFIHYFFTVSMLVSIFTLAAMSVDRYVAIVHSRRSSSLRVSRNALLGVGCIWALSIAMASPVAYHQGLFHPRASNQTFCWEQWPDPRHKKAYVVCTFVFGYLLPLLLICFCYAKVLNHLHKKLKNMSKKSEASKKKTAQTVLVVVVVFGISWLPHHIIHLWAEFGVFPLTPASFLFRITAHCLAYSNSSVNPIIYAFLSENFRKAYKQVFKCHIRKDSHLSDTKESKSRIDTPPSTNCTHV
Chain of Muscarinic acetylcholine receptor M5 (Homo sapiens) (P08912 whole entry): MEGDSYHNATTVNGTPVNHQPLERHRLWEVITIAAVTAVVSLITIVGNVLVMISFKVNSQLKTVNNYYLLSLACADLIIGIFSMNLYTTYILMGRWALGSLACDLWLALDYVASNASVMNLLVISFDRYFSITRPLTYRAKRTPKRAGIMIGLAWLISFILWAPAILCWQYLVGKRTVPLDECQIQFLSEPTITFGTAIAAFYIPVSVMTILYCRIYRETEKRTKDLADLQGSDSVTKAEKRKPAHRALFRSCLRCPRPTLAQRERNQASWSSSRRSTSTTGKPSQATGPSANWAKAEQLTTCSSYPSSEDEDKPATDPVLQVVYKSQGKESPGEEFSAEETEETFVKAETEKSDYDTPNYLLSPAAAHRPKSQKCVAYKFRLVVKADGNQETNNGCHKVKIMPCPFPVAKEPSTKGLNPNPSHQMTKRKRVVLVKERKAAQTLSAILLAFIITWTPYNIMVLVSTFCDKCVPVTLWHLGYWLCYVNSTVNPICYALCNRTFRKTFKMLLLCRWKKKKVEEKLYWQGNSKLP
Chain of Vasopressin V1a receptor (Homo sapiens) (P37288 whole entry, looked up): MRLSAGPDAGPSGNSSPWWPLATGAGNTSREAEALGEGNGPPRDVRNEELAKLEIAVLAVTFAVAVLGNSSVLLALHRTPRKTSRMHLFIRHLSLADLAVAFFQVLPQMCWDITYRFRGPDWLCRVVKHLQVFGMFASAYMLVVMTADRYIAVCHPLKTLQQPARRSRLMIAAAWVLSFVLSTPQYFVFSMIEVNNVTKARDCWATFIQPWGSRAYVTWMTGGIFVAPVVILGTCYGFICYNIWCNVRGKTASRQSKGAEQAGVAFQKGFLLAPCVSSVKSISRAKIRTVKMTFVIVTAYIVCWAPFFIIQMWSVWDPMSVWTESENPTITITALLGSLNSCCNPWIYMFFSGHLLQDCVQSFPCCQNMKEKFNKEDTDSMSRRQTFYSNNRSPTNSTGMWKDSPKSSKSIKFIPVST
Chain of 5-hydroxytryptamine receptor 2C (Homo sapiens) (P28335 whole entry): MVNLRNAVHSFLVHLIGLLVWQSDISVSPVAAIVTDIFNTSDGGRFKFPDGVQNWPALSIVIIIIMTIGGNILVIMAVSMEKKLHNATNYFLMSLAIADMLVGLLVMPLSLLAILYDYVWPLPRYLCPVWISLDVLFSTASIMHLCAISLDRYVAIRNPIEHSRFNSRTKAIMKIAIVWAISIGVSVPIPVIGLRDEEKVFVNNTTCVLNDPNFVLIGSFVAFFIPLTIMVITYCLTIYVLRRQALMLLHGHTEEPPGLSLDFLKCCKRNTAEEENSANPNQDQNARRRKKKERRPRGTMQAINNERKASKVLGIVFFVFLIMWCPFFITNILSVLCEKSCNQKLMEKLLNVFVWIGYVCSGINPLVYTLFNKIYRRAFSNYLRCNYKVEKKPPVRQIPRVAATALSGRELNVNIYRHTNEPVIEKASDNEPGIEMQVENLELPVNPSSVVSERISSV
Chain of Serine/threonine-protein kinase DCLK1 (O15075 whole entry): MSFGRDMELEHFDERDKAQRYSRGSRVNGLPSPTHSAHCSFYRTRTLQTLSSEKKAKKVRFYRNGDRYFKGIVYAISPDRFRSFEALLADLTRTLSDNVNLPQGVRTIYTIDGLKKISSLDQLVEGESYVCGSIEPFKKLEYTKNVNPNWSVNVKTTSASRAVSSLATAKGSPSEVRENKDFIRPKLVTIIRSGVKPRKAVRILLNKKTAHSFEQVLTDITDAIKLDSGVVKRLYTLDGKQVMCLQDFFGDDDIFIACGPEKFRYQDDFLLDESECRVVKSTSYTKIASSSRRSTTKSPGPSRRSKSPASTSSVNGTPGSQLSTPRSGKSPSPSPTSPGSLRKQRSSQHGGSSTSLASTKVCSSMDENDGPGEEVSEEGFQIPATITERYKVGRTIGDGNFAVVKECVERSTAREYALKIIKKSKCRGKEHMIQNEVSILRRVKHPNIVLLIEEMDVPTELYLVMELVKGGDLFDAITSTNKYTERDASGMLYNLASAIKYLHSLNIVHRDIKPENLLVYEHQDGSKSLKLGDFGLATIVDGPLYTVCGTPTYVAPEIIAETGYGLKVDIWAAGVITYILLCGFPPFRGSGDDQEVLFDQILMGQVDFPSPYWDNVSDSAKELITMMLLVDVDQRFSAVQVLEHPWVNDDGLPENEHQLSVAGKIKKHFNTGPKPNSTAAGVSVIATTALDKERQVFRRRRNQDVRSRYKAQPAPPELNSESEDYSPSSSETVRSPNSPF

CCCCN(CCCC)C(=O)CN1C[C@H](c2cc(OC)c3c(c2)OCO3)[C@@H](C(=O)O)[C@@H]1CC(C)(C)CCC [ABT-546]
inhibition [1]: < 10% | inhibition [2]: 28% | inhibition (Mu-type opioid receptor): 17% | inhibition [3]: < 10% | Kd [4]: > 10000 nM (not active) | inhibition [5]: < 10% | inhibition [6]: < 10% | Kd [7]: > 10000 nM (not active) | inhibition [8]: < 10% | inhibition [9]: < 10% | inhibition [10]: < 10% | inhibition [11]: < 10% | inhibition [12]: < 10% | inhibition [13]: < 10% | inhibition [14]: < 10% | inhibition [15]: < 10% | inhibition [16]: < 10% | inhibition [17]: < 10% | inhibition [18]: 15% | inhibition [19]: < 10% | inhibition [20]: < 10% | inhibition [21]: < 10% | inhibition [22]: < 10% | inhibition [23]: < 10% | inhibition [24]: < 10% | inhibition [25]: < 10%

CCCCN(CCCC)C(=O)CN1C[C@@H](c2cc(OC)c3c(c2)OCO3)[C@H](C(=O)O)[C@H]1CC(C)(C)CCC [A-545]
inhibition [26]: 33.5% | Ki [27]: 5770 nM | inhibition [28]: 19.1% | Ki [29]: 298 nM | inhibition [30]: -3.72% | inhibition [31]: 1.1% | Ki [32]: 189 nM | Ki (D(4) dopamine receptor): 5.5 nM | inhibition [33]: 38.5% | inhibition [34]: -6.31%

Source: ChEMBL document CHEMBL4507258 (2021)
